Experimental data published in the supplement of paper PMC9262897, “Low-cost anti-mycobacterial drug discovery using engineered E. coli” (Nature Communications, 2022).
± gives the standard deviation of the averaged measurements.

Key:
[1] = test system: E. coli TESEC strain (Mtb target enzyme); assay: growth (OD600 after 10 h); higher = more growth
Experimental: (§1)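 Chemical-genetic validation profiles: TESEC strains (Mtb Asd or DapB, arabinose-inducible) or the wild-type control grown in a two-dimensional dilution series of drug (µM) and arabinose. Growth is read as OD600 after 10 h in triplicate.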

[2] = test system: E. coli wild-type control; assay: growth (OD600 after 10 h); higher = more growth
Experimental: as §1

CN(Cc1cc(Br)cc(Br)c1N)C1CCCCC1 [Bromhexine] (TESEC target enzyme: Mtb Asd)
growth
Settings	drug 0.3 µM	drug 0.8 µM	drug 1.7 µM	drug 3.9 µM	drug 8.8 µM	drug 19.8 µM	drug 44.4 µM
[1], arabinose 15560 nM	0.18 ± 0.051	0.153 ± 0.0073	–	–	–	–	–
[1], arabinose 28008 nM	0.229 ± 0.064	0.178 ± 0.052	–	–	–	–	–
[1], arabinose 50414 nM	0.207 ± 0.05	0.177 ± 0.016	–	–	–	–	–
[1], arabinose 90744 nM	0.215 ± 0.071	0.211 ± 0.042	–	–	–	–	–
[1], arabinose 163340 nM	0.257 ± 0.021	0.239 ± 0.017	–	–	–	–	–
[1], arabinose 294012 nM	0.293 ± 0.026	0.302 ± 0.033	–	–	–	–	–
[1], arabinose 529221 nM	0.32 ± 0.011	0.291 ± 0.031	–	–	–	–	–
[1], arabinose 952599 nM	0.355 ± 0.0086	0.368 ± 0.026	–	–	–	–	–
[1], arabinose 1714678 nM	0.336 ± 0.038	0.387 ± 0.023	–	–	–	–	–
[1], arabinose 3086420 nM	0.328 ± 0.017	0.361 ± 0.016	–	–	–	–	–
[1], arabinose 5555556 nM	0.321 ± 0.0088	0.333 ± 0.033	–	–	–	–	–
[1], arabinose 10000000 nM	0.341 ± 0.023	0.34 ± 0.013	–	–	–	–	–
[2], arabinose 15560 nM	0.134 ± 0.041	0.163 ± 0.0029	0.156 ± 0.055	0.16 ± 0.011	0.172 ± 0.0042	0.162 ± 0.0097	–
[2], arabinose 28008 nM	0.149 ± 0.028	0.159 ± 0.039	0.162 ± 0.0094	0.172 ± 0.016	0.164 ± 0.016	0.1736 ± 0.0012	–
[2], arabinose 50414 nM	0.17 ± 0.028	0.144 ± 0.0066	0.17 ± 0.014	0.16 ± 0.037	0.157 ± 0.034	0.172 ± 0.0041	–
[2], arabinose 90744 nM	0.167 ± 0.034	0.21 ± 0.037	0.174 ± 0.011	0.193 ± 0.016	0.178 ± 0.015	0.177 ± 0.032	–
[2], arabinose 163340 nM	0.157 ± 0.0042	0.178 ± 0.031	0.161 ± 0.037	0.187 ± 0.024	0.146 ± 0.028	0.194 ± 0.0046	–
[2], arabinose 294012 nM	0.156 ± 0.023	0.191 ± 0.019	0.204 ± 0.0089	0.229 ± 0.062	0.182 ± 0.022	0.198 ± 0.012	–
[2], arabinose 529221 nM	0.18 ± 0.0067	0.202 ± 0.0097	0.201 ± 0.016	0.194 ± 0.016	0.186 ± 0.035	0.221 ± 0.035	–
[2], arabinose 952599 nM	0.238 ± 0.05	0.231 ± 0.012	0.209 ± 0.0077	0.214 ± 0.0092	0.214 ± 0.016	0.236 ± 0.04	0.203 ± 0.0076
[2], arabinose 1714678 nM	0.213 ± 0.036	0.221 ± 0.015	0.208 ± 0.018	0.232 ± 0.028	0.223 ± 0.032	0.253 ± 0.015	0.198 ± 0.017
[2], arabinose 3086420 nM	0.207 ± 0.05	0.23 ± 0.022	0.212 ± 0.015	0.254 ± 0.025	0.204 ± 0.018	0.267 ± 0.031	0.235 ± 0.02
[2], arabinose 5555556 nM	0.189 ± 0.011	0.214 ± 0.012	0.206 ± 0.0033	0.198 ± 0.035	0.201 ± 0.0027	0.218 ± 0.031	0.232 ± 0.05
[2], arabinose 10000000 nM	0.174 ± 0.015	0.21 ± 0.045	0.163 ± 0.079	0.217 ± 0.0087	0.173 ± 0.03	0.21 ± 0.025	–

N=C(N)c1ccc(OCCCCCOc2ccc(C(=N)N)cc2)cc1 [Pentamidine] (TESEC target enzyme: Mtb DapB)
growth
Settings	drug 0.7 µM	drug 1.5 µM	drug 3.5 µM	drug 7.8 µM	drug 17.6 µM	drug 39.5 µM	drug 88.9 µM
[1], arabinose 15560 nM	0.117 ± 0.018	0.131 ± 0.029	–	–	–	–	–
[1], arabinose 28008 nM	0.207 ± 0.0099	0.18 ± 0.011	–	–	–	–	–
[1], arabinose 50414 nM	0.186 ± 0.02	0.187 ± 0.011	–	–	–	–	–
[1], arabinose 90744 nM	0.207 ± 0.019	0.195 ± 0.017	–	–	–	–	–
[1], arabinose 163340 nM	0.225 ± 0.01	0.21 ± 0.017	–	–	–	–	–
[1], arabinose 294012 nM	0.218 ± 0.017	0.235 ± 0.014	–	–	–	–	–
[1], arabinose 529221 nM	0.208 ± 0.016	0.192 ± 0.026	–	–	–	–	–
[1], arabinose 952599 nM	0.2 ± 0.003	0.225 ± 0.015	–	–	–	–	–
[1], arabinose 1714678 nM	0.16 ± 0.0023	0.182 ± 0.038	–	–	–	–	–
[1], arabinose 3086420 nM	0.133 ± 0.011	0.153 ± 0.0066	–	–	–	–	–
[1], arabinose 5555556 nM	0.131 ± 0.012	0.146 ± 0.011	–	–	–	–	–
[1], arabinose 10000000 nM	0.127 ± 0.019	0.124 ± 0.021	–	–	–	–	–
[2], arabinose 15560 nM	0.275 ± 0.13	0.32 ± 0.013	0.321 ± 0.013	0.289 ± 0.013	0.269 ± 0.04	0.258 ± 0.011	–
[2], arabinose 28008 nM	0.317 ± 0.024	0.309 ± 0.021	0.301 ± 0.023	0.293 ± 0.029	0.231 ± 0.02	0.259 ± 0.0096	–
[2], arabinose 50414 nM	0.321 ± 0.028	0.318 ± 0.027	0.304 ± 0.022	0.291 ± 0.04	0.235 ± 0.016	0.233 ± 0.025	–
[2], arabinose 90744 nM	0.29 ± 0.028	0.289 ± 0.047	0.305 ± 0.032	0.312 ± 0.024	0.261 ± 0.021	0.246 ± 0.013	–
[2], arabinose 163340 nM	0.311 ± 0.036	0.319 ± 0.048	0.308 ± 0.024	0.271 ± 0.089	0.257 ± 0.0089	0.256 ± 0.0095	–
[2], arabinose 294012 nM	0.207 ± 0.039	0.29 ± 0.016	0.277 ± 0.05	0.313 ± 0.034	0.271 ± 0.0086	0.249 ± 0.022	–
[2], arabinose 529221 nM	0.168 ± 0.044	0.225 ± 0.038	0.257 ± 0.04	0.302 ± 0.038	0.257 ± 0.036	0.251 ± 0.019	–
[2], arabinose 952599 nM	0.163 ± 0.046	0.141 ± 0.027	0.201 ± 0.037	0.236 ± 0.037	0.221 ± 0.0073	0.239 ± 0.025	0.206 ± 0.046
[2], arabinose 1714678 nM	0.137 ± 0.028	0.161 ± 0.043	0.193 ± 0.0058	0.18 ± 0.012	0.179 ± 0.027	0.231 ± 0.052	0.161 ± 0.0092
[2], arabinose 3086420 nM	0.13 ± 0.011	0.149 ± 0.0075	0.156 ± 0.032	0.185 ± 0.017	0.113 ± 0.015	0.145 ± 0.018	0.157 ± 0.018
[2], arabinose 5555556 nM	0.125 ± 0.011	0.126 ± 0.014	0.177 ± 0.033	0.203 ± 0.017	0.12 ± 0.013	0.136 ± 0.028	0.16 ± 0.011
[2], arabinose 10000000 nM	0.115 ± 0.0078	0.151 ± 0.007	0.13 ± 0.012	0.16 ± 0.0096	0.129 ± 0.021	0.131 ± 0.06	–
